Assay results as given in US12419862B2, “Use of a cathepsin s inhibitor against the formation of anti-drug antibodies” (Hoffmann-La Roche Inc., priority 2018, dated 2025).
“Also recorded” adds a separate entry of the source.

Columns and labels:
[1] = tested on: CEA-specific IgG response; test: ADA against CEA-IL2v in wild-type mice, ELISA (Example 1, 28 days); assay type: in vivo, C57BL/6 wild type mice; settings: 40 mg/kg/day via food admix from one week before first immunization until day 28, vs vehicle
Experimental: 15-week-old mice C57BL/6 wild type and C57BL/6-Tg (hIgG1,k,l) were purchased from Taconic (Denmark) and housed at the animal facilities under a 12 hour (h) light 12 h dark cycle with cycles of air ventilation and free access to water and food. 7×10 μg of CEA-112v or 7×10 μg of Humira (Adalimumab, Abbvie Germany GmbH) were injected respectively at day 0, 4, 7, 11, 14, 18 and 21 subcutaneously in the right flank or the left flank alternatively. The dosage of the cathepsin S inhibitor consumption was 40 mg/kg/day. The food admix (Ssniff Spezialdiäten, Germany) was given daily one day before the first immunization until day 28 for the mice immunized with Humira. The food admix was given daily one week before the first immunization until day 28 for the mice immunized with CEA-IL2v (R06895882). At day −12, 7, 14 and 28 blood samples were taken.
(§1) Nunc Maxisorp flat-bottom 96 well ELISA plates were coated with 100 μl per well of Humira or CEA-PGLALA (3.42 mg/ml, ID 8037) respectively at 5 μg/mL in NaHCO3100 mM buffer overnight at +4° C. The next day the ELISA plates were washed 3 times with PBS+0.05% Tween. […] 100 μl of substrate P-nitrophenyl phosphate ready to use (Life Technologies Cat no 002212) were added per well and after 10 min incubation at room temperature, the OD at 405 nm was read as an end-point measurement with a Versamax ELISA reader.

[2] = tested on: CEA-specific IgG response; test: ADA against CEA-IL2v in hIgG1 Tg mice over time, ELISA (Example 4, 63 days); assay type: in vivo, C57BL/6-Tg (hIgG1,k,l) mice; settings: 40 mg/kg/day via food admix, primary and memory response, samples to day 63, vs vehicle
Experimental: 15-week-old mice C57BL/6-Tg (hIgG1,k,l) and C57BL/6 wild type mixed gender were purchased from Taconic (Denmark) and housed at the animal facilities in room with air-conditioned under a 12 hours light/dark cycle in macrolon boxes with enriched environment and free access to water and food. 7×10 μg of CEA-IL2v (Batch no GLI0144-01) were injected at day 0, 4, 7, 11, 14, 18 and 21 for the primary response, and at day 49, 53, 56 and 60 for the memory response. The CEA-112v injections were done subcutaneously in the right flank or the left flank alternatively. The dosage of (2S,4R)-4-[4-(1-methyl-1H-pyrazol-4-yl)-2-trifluoromethyl-benzenesulfonyl]-1-(1-trifluoromethyl-cyclopropanecarbonyl)-pyrrolidine-2-carboxylic acid (1-cyano-cyclopropyl)-amide consumption was 40 mg/kg/day. […]
as §1, with “CEA-PGLALA” for “CEA-PGLALA (3.42 mg/ml, ID 8037)”, “C.” for “C. The next day the ELISA plates were washed 3 times with PBS+0.05% Tween.”, “Technologies,” for “Technologies”

Cn1cc(-c2ccc(S(=O)(=O)[C@@H]3C[C@@H](C(=O)NC4(C#N)CC4)N(C(=O)C4(C(F)(F)F)CC4)C3)c(C(F)(F)F)c2)cn1 [cathepsin S inhibitor, (2S,4R)-4-[4-(1-methyl-1H-pyrazol-4-yl)-2-trifluoromethyl-benzenesulfonyl]-1-(1-trifluoromethyl-cyclopropanecarbonyl)-pyrrolidine-2-carboxylic acid (1-cyano-cyclopropyl)-amide]
ADA to CEA-IL2v (CEA-specific IgG) [1]: reduces its levels in wild-type mice; also recorded: only partial reduction of ADA | ADA to CEA-IL2v (CEA-specific IgG) over time [2]: prevents ADA to CEA-IL2v in hIgG transgenic mice
